In patent publication US9663536B2, “Inhibitors of human immunodeficiency virus replication” (priority 2013, dated 2017):
Read-outs that look alike come from different tables or passages of the source.

Key:
[1] = from C=CCCc1ccccc1Cc1cnc(-c2cc3nc(C)c([C@H](OC(C)(C)C)C(=O)OCC)c(N4CCC(C)(OCC=C)CC4)n3n2)s1, rcm bond, Hoveyda-Grubbs II (7 mol%), DCE, 3.67 mM, 70.0 °C, 2.0 h
[2] = rcm bond, 20-membered ring, Hoveyda-Grubbs II (10 mol%), DCE, 70.0 °C
[3] = system: recombinant NL-Rluc virus; assay: Inhibition of HIV replication (NL-Rluc virus in MT-2 cells, luciferase readout); type: cell-based; details: Human immunodeficiency virus 1, MT2, 120 h

With `CCOC(=O)[C@@H](OC(C)(C)C)c1c(C)nc2cc3nn2c1N1CCC(C)(CC1)OCC=CCCc1ccccc1Cc1cnc-3s1` the ring closure, yield after HPLC ([1]; 19-membered ring) was 8.65% and the ring closure, yield after HPLC ([1]; 20-membered ring) was 19.7%.

In the case of `CCOC(=O)[C@@H](OC(C)(C)C)c1c(C)nc2cc3nn2c1N1CCC(C)(CC1)OCC=CCOc1ccccc1Cc1cnc-3s1`, the ring closure, isolated yield ([2]; from C=CCOc1ccccc1Cc1cnc(-c2cc3nc(C)c([C@H](OC(C)(C)C)C(=O)OCC)c(N4CCC(C)(OCC=C)CC4)n3n2)s1, 1.64 mM, 2.0 h) is reported as 76%.

`COC(=O)Cc1c(C)nc2cc3nn2c1N1CCC(C)(CC/C=C/COc2ccccc2Cn2cc-3cn2)CC1` showed a ring closure, isolated yield ([2]; from C=CCCC1(C)CCN(c2c(CC(=O)OC)c(C)nc3cc(-c4cnn(Cc5ccccc5OCC=C)c4)nn23)CC1, 5.02 mM, 1.0 h) of 63%.

For `COC(=O)[C@@H](OC(C)(C)C)c1c(C)nc2cc3nn2c1N1CCC(C)(CC1)OC/C=C/COc1ccccc1Cc1cnn-3c1`, the ring closure, isolated yield ([2]; from C=CCOc1ccccc1Cc1cnn(-c2cc3nc(C)c([C@H](OC(C)(C)C)C(=O)OC)c(N4CCC(C)(OCC=C)CC4)n3n2)c1, 1.2 mM, 3.0 h) was 74%.

`Cc1nc2cc3nn2c(c1[C@H](OC(C)(C)C)C(=O)O)N1CCC(C)(CCCCCOc2cccc(c2)Cc2cnn-3c2)CC1` [Example 39, (2S)-2-(tert-Butoxy)-2-{4,26-dimethyl-20-oxa-1,5,7,8,10,11-hexaazahexacyclo[24.2.2.1^6,9.1^10,13.1^15,19.0^2,7]tritriaconta-2,4,6(33),8,11,13(32),15(31),16,18-nonaen-3-yl}acetic acid] gave an EC50 [3] of 6 nM.

`Cc1nc2cc3nn2c(c1[C@H](OC(C)(C)C)C(=O)O)N1CCC(C)(CCCCCOc2ccccc2Cn2cc-3cn2)CC1` [Example 40, (2S)-2-(tert-Butoxy)-2-{4,27-dimethyl-21-oxa-1,5,7,8,12,13-hexaazahexacyclo[25.2.2.1^6,9.1^10,13.0^2,7.0^15,20]tritriaconta-2,4,6(33),8,10(32),11,15(20),16,18-nonaen-3-yl}acetic acid] showed an EC50 [3] of 4 nM.

In the case of `Cc1nc2cc3nn2c(c1[C@H](OC(C)(C)C)C(=O)O)N1CCC(C)(CC/C=C/COc2ccccc2Cn2cc-3cn2)CC1` [Example 41], the EC50 [3] is reported as 3 nM.
